Values quoted from earlier work in paper PMC9034292 (The Journal of Biological Chemistry, 2022).

How the values were obtained:
[1] = tested on: HIV-1 RT–associated RNase H
[2] = one divalent cation-coordinating ion

Row | Compound | Inhibition of HIV RNase H [1] | Manner of inhibition of HIV-1 RT–associated RNase H [1] | Inhibition of HBV RNase H (HBV RNase H) | Kd [2] [µM] | logK (stability constant) [2]
1 | CC(C)c1ccc(O)c(=O)c(O)c1 [β-thujaplicinol] | inhibits | reversible noncompetitive | inhibits | – | –
2 | dihydroxytropylium ion | – | – | – | 150 | 3.82
